We go through 19 molecules from ChEMBL document CHEMBL5252628, “Novel xanthone antibacterials: Semi-synthesis, biological evaluation, and the action mechanisms” (Bioorg Med Chem, 2023).

Converted amounts (≈) assume the structure as drawn. Bounds are passed on as bounds.

One series deals with Salmonella enteritidis. In words: Antibacterial activity against Salmonella enteritidis SM012 assessed as inhibition of bacterial growth incubated for 18 to 24 hrs by broth microdilution assay. The note with it: Salmonella enterica, time 18-24 hrs. Format: functional, Salmonella enterica subsp. enterica serovar Enteritidis.
In series [1] the test system is Staphylococcus aureus. In words: Antibacterial activity against Staphylococcus aureus SH-27 assessed as inhibition of bacterial growth incubated for 18 to 24 hrs by broth microdilution assay. As to conditions: time 18-24 hrs. Format: functional.
The test system of series [2] is Staphylococcus aureus. Briefly: Antibacterial activity against Staphylococcus aureus ATCC 43300 assessed as inhibition of bacterial growth incubated for 18 to 24 hrs by broth microdilution assay. The note with it: time 18-24 hrs. Format: functional.
Series [3] deals with Staphylococcus aureus. In words: Antibacterial activity against methicillin-resistant Staphylococcus aureus 2 assessed as inhibition of bacterial growth incubated for 18 to 24 hrs by broth microdilution assay. It is filed as functional. As to conditions: time 18-24 hrs.
Series [4] relates to Staphylococcus aureus. Briefly: Antibacterial activity against Staphylococcus aureus ATCC 33591 assessed as inhibition of bacterial growth incubated for 18 to 24 hrs by broth microdilution assay. Format: functional. The note with it: time 18-24 hrs.
Series [5] concerns Staphylococcus aureus. In words: Antibacterial activity against Staphylococcus aureus ATCC 29213 assessed as inhibition of bacterial growth incubated for 18 to 24 hrs by broth microdilution assay. Format: functional. The note with it: time 18-24 hrs.
Another series has as its system Escherichia coli. In words: Antibacterial activity against Escherichia coli ATCC 25922 assessed as inhibition of bacterial growth incubated for 18 to 24 hrs by broth microdilution assay. As to conditions: time 18-24 hrs. Format: functional.
The nature of series [6]: Hemolytic activity in rabbit RBC assessed as hemolysis incubated for 1 hr by microtiter plate method. Format: toxicity, cell-based, Oryctolagus cuniculus, Erythrocyte. The note with it: red blood cells.
The next series concerns L02. Briefly: Cytotoxicity against human L02 cells assessed as reduction in cell viability at 25 ug/ml incubated for 72 hrs by CCK-8 assay. It is filed as toxicity, cell-based. As to conditions: l02, 72 h, dose 25 µg/ml.
The next series relates to A549. Briefly: Cytotoxicity against human A549 cells assessed as reduction in cell viability at 25 ug/ml incubated for 72 hrs by CCK-8 assay. It is filed as toxicity, cell-based. As to conditions: a549, 72 h, dose 25 µg/ml.

In the case of `COc1c(O)cc2oc3cc4c(c(O)c3c(=O)c2c1CC=C(C)C)CCC(C)(C)O4`, the MIC was over 256 µg/mL in the series with Salmonella enteritidis; 64 µg/mL (≈ 156 µM) with Staphylococcus aureus [1]; 64 µg/mL (≈ 156 µM) with Staphylococcus aureus [2]; 64 µg/mL (≈ 156 µM) in the series on Staphylococcus aureus [3]; 32 µg/mL (≈ 78 µM) in the series on Staphylococcus aureus [4]; 64 µg/mL (≈ 156 µM) with Staphylococcus aureus [5]. For the same molecule, in the series with Escherichia coli, the MIC was over 256 µg/mL.

As for `COc1c(OC(=O)C(C)C)cc2oc3cc(OC(=O)C(C)C)c(CC=C(C)C)c(O)c3c(=O)c2c1CC=C(C)C`, the MIC in the series on Salmonella enteritidis, in the series with Staphylococcus aureus [1], in the series on Staphylococcus aureus [2], in the series on Staphylococcus aureus [3], in the series on Staphylococcus aureus [4] and in the series with Staphylococcus aureus [5] was over 256 µg/mL throughout. In the series with Escherichia coli, the MIC is over 256 µg/mL.

Regarding `C=CCOc1cc2oc3cc(OCC=C)c(OC)c(CC=C(C)C)c3c(=O)c2c(OC(=O)C(C)C)c1CC=C(C)C`, the MIC with Salmonella enteritidis, in the series with Staphylococcus aureus [1], with Staphylococcus aureus [2], in the series with Staphylococcus aureus [3], in the series on Staphylococcus aureus [4] and in the series with Staphylococcus aureus [5] was over 256 µg/mL in each case. In addition, in the series with Escherichia coli, the minimal inhibitory concentration (MIC) is over 256 µg/mL.

`COc1c(OCCCCCCO)cc2oc3cc(OCCCCCCO)c(CC=C(C)C)c(O)c3c(=O)c2c1CC=C(C)C`: the MIC in the series on Salmonella enteritidis, in the series with Staphylococcus aureus [1], in the series on Staphylococcus aureus [2], in the series with Staphylococcus aureus [3], in the series on Staphylococcus aureus [4] and in the series on Staphylococcus aureus [5] was over 256 µg/mL in each case. Also, in the series on Escherichia coli, the MIC is over 256 µg/mL.

With `COc1c(OC(=O)C(C)C)cc2oc3cc(O)c(CC=C(C)C)c(O)c3c(=O)c2c1CC=C(C)C`, the MIC in the series with Salmonella enteritidis, with Staphylococcus aureus [1], in the series on Staphylococcus aureus [2], in the series on Staphylococcus aureus [3], in the series with Staphylococcus aureus [4] and in the series on Staphylococcus aureus [5] was over 256 µg/mL in each case. Moreover, the MIC with Escherichia coli is over 256 µg/mL.

For the molecule `C=CCOc1cc2oc3cc(O)c(CC=C(C)C)c(O)c3c(=O)c2c(CC=C(C)C)c1OC`, in series [6], the HC50 at 1 h worked out at 403 µg/mL. Besides, the MIC in the series on Salmonella enteritidis is over 256 µg/mL; with Staphylococcus aureus [1], 2 µg/mL (≈ 4.44 µM); in the series with Staphylococcus aureus [2], 256 µg/mL (≈ 568 µM); in the series on Staphylococcus aureus [3], over 256 µg/mL; with Staphylococcus aureus [4] it was 256 µg/mL (≈ 568 µM); with Staphylococcus aureus [5], over 256 µg/mL. For the same molecule, in the series on Escherichia coli, the MIC is over 256 µg/mL. Besides, the Activity result in the series with L02 and in the series on A549 was “Non-Toxic” throughout.

In the case of `COc1c(O)cc2oc3cc(OC(=O)C(C)C)c(CC=C(C)C)c(O)c3c(=O)c2c1CC=C(C)C`, the MIC in the series with Salmonella enteritidis, in the series with Staphylococcus aureus [1], with Staphylococcus aureus [2], with Staphylococcus aureus [3], with Staphylococcus aureus [4] and in the series on Staphylococcus aureus [5] was over 256 µg/mL in each case. In addition, the MIC in the series on Escherichia coli is over 256 µg/mL.

In the case of `C=CCOc1cc2oc3cc(OCC=C)c(OC)c(CC=C(C)C)c3c(=O)c2c(OC(C)=O)c1CC=C(C)C`, the MIC in the series with Salmonella enteritidis, in the series with Staphylococcus aureus [1], with Staphylococcus aureus [2], in the series with Staphylococcus aureus [3], in the series on Staphylococcus aureus [4] and in the series on Staphylococcus aureus [5] was over 256 µg/mL each time. The MIC with Escherichia coli is over 256 µg/mL.

As for `COc1c(O)cc2c(c1CC=C(C)C)Cc1c(cc(O)c(CC=C(C)C)c1O)O2`, in series [6], the HC50 at 1 h is over 500 µg/mL. For the same molecule, the MIC with Salmonella enteritidis was over 256 µg/mL; in the series on Staphylococcus aureus [1] it was 8 µg/mL (≈ 20.2 µM); in the series with Staphylococcus aureus [2] it was 4 µg/mL (≈ 10.1 µM); with Staphylococcus aureus [3], 16 µg/mL (≈ 40.4 µM); in the series on Staphylococcus aureus [4] it was 8 µg/mL (≈ 20.2 µM); with Staphylococcus aureus [5], 16 µg/mL (≈ 40.4 µM). For the same molecule, the MIC in the series on Escherichia coli was over 256 µg/mL. For the same molecule, the Activity entry in the series with L02 and in the series on A549 was “Non-Toxic” each time.

Take `COc1cc2oc3cc(OC)c(OC)c(CC=C(C)C)c3c(=O)c2c(OC)c1CC=C(C)C`: the MIC in the series with Salmonella enteritidis, in the series with Staphylococcus aureus [1], with Staphylococcus aureus [2], with Staphylococcus aureus [3], with Staphylococcus aureus [4] and in the series on Staphylococcus aureus [5] was over 256 µg/mL in each case. For the same molecule, the MIC in the series on Escherichia coli is over 256 µg/mL.

Regarding `COc1c(OC(C)=O)cc2oc3cc(OC(C)=O)c(CC=C(C)C)c(OC(C)=O)c3c(=O)c2c1CC=C(C)C`, the HC50 at 1 h in series [6] is over 500 µg/mL. Moreover, the MIC with Salmonella enteritidis was over 256 µg/mL; in the series with Staphylococcus aureus [1], 16 µg/mL (≈ 29.8 µM); in the series with Staphylococcus aureus [2], over 256 µg/mL; with Staphylococcus aureus [3] it was over 256 µg/mL; with Staphylococcus aureus [4], over 256 µg/mL; with Staphylococcus aureus [5], 128 µg/mL (≈ 239 µM). The MIC in the series with Escherichia coli was over 256 µg/mL. Besides, the Activity entry with L02 and in the series on A549 was “Non-Toxic” throughout.

For the molecule `COc1c(OCCCCCCO)cc2oc3cc(O)c(CC=C(C)C)c(O)c3c(=O)c2c1CC=C(C)C`, the MIC in the series on Salmonella enteritidis, in the series on Staphylococcus aureus [1], in the series with Staphylococcus aureus [2], in the series with Staphylococcus aureus [3], with Staphylococcus aureus [4] and in the series with Staphylococcus aureus [5] was over 256 µg/mL each time. Besides, in the series with Escherichia coli, the MIC was over 256 µg/mL.

In the case of `COc1c(OC(C)=O)cc2oc3cc(OC(C)=O)c(CC=C(C)C)c(O)c3c(=O)c2c1CC=C(C)C`, the MIC in the series on Salmonella enteritidis, in the series with Staphylococcus aureus [1], with Staphylococcus aureus [2], in the series with Staphylococcus aureus [3], in the series on Staphylococcus aureus [4] and in the series with Staphylococcus aureus [5] was over 256 µg/mL in each case. Moreover, in the series on Escherichia coli, the MIC is over 256 µg/mL.

Consider `COc1c(O)cc2oc3cc(O)c(CCC(C)C)c(O)c3c(=O)c2c1CCC(C)C`, for which the MIC with Salmonella enteritidis was over 256 µg/mL; in the series with Staphylococcus aureus [1] it was 64 µg/mL (≈ 154 µM); in the series with Staphylococcus aureus [2], 32 µg/mL (≈ 77.2 µM); with Staphylococcus aureus [3], 64 µg/mL (≈ 154 µM); in the series on Staphylococcus aureus [4], 64 µg/mL (≈ 154 µM); in the series on Staphylococcus aureus [5], 32 µg/mL (≈ 77.2 µM). The MIC in the series with Escherichia coli was over 256 µg/mL.

Consider `COc1c(OCc2ccccc2)cc2oc3cc(OCc4ccccc4)c(CC=C(C)C)c(OCc4ccccc4)c3c(=O)c2c1CC=C(C)C`, for which the MIC with Salmonella enteritidis, in the series on Staphylococcus aureus [1], with Staphylococcus aureus [2], in the series on Staphylococcus aureus [3], with Staphylococcus aureus [4] and in the series on Staphylococcus aureus [5] was over 256 µg/mL each time. For the same molecule, the MIC with Escherichia coli was over 256 µg/mL.

As for `COc1c(O)cc2oc3cc(OC(C)=O)c(CC=C(C)C)c(O)c3c(=O)c2c1CC=C(C)C`, the MIC in the series with Salmonella enteritidis, in the series on Staphylococcus aureus [1], with Staphylococcus aureus [2], with Staphylococcus aureus [3], in the series on Staphylococcus aureus [4] and with Staphylococcus aureus [5] was over 256 µg/mL in each case. For the same molecule, the MIC in the series on Escherichia coli was over 256 µg/mL.

For `COc1c(O)cc2oc3cc(O)c(CC=C(C)C)c(OC(=O)C(C)C)c3c(=O)c2c1CC=C(C)C`, the HC50 at 1 h in [6] was 263 µg/mL. For the same molecule, the minimum inhibitory concentration (MIC) with Salmonella enteritidis was over 256 µg/mL; in the series on Staphylococcus aureus [1], 1 µg/mL (≈ 2.08 µM); in the series with Staphylococcus aureus [2], 1 µg/mL (≈ 2.08 µM); in the series on Staphylococcus aureus [3], 2 µg/mL (≈ 4.16 µM); in the series on Staphylococcus aureus [4], 1 µg/mL (≈ 2.08 µM); with Staphylococcus aureus [5] it was 2 µg/mL (≈ 4.16 µM). Also, in the series with Escherichia coli, the MIC is over 256 µg/mL. In addition, the Activity entry with L02 and with A549 was “Non-Toxic” each time.

Turning to `COc1c(OC(=O)C(C)C)cc2oc3cc(OC(=O)C(C)C)c(CC=C(C)C)c(OC(=O)C(C)C)c3c(=O)c2c1CC=C(C)C`, the MIC in the series on Salmonella enteritidis, in the series with Staphylococcus aureus [1], in the series with Staphylococcus aureus [2], in the series with Staphylococcus aureus [3], in the series on Staphylococcus aureus [4] and with Staphylococcus aureus [5] was over 256 µg/mL throughout. Moreover, the MIC in the series on Escherichia coli is over 256 µg/mL.

As to `C=CCOc1cc2oc3cc(OCC=C)c(OC)c(CC=C(C)C)c3c(=O)c2c(O)c1CC=C(C)C`, the MIC in the series on Salmonella enteritidis, in the series on Staphylococcus aureus [1], with Staphylococcus aureus [2], with Staphylococcus aureus [3], in the series on Staphylococcus aureus [4] and in the series with Staphylococcus aureus [5] was over 256 µg/mL in each case. In addition, in the series on Escherichia coli, the MIC was over 256 µg/mL.
